Laboratory results as given in paper PMC11050087, “Polyphenols from Maackia amurensis Heartwood Protect Neuronal Cells from Oxidative Stress and Prevent Herpetic Infection” (International Journal of Molecular Sciences, 2024).
Where “and” joins values, the source holds several entries; their conditions need not be identical. Equal values may be shown once.

Legend:
[1] = tested on: 6-OHDA-treated Neuro-2a cells; assay: Apoptosis profile by flow cytometry (Annexin V & Dead Cell Kit); type: cell-based, murine; conditions: Table 1; polyphenols 10 µM, 6-OHDA 100 µM, 24 h; mean
Description: We investigated the effect of polyphenolic compounds from M. amurensis on apoptosis profile in 6-OHDA-treated Neuro-2a cells by flow cytometry using fluorescent annexin V conjugate as a fluorescent dye. We observed significant changes in apoptosis profile in Neuro-2a cells after 6-OHDA-treatment. […] Polyphenols 3, 6 and 13 diminished the neurotoxic effect of 6-OHDA-treatment.
The cells were incubated for 1 h in a 6-well plate (5 × 10^4 cells/mL) with polyphenolic compounds (10 µM). Then, 6-OHDA (100 µM) was added, and cell suspension was incubated for 24 h. After incubation, the maintenance media was collected, and the cells were washed by cold PBS twice and incubated with trypsin-EDTA solution. The cell suspension was washed with cold PBS twice again, centrifugated and then used for apoptosis detection by Muse® Annexin V & Dead Cell Kit in accordance with the manufacturer’s instructions (Luminex, Austin, TX, USA). The fluorescence was measured with Muse® Cell Analyzer (Luminex, Austin, TX, USA) and the data were processed by Muse 1.5 Analysis software (Luminex, Austin, TX, USA).

[2] = tested on: 6-OHDA-treated Neuro-2a cells; assay: Mitochondrial membrane potential detection (TMRM) in 6-OHDA-treated cells; type: cell-based, murine; conditions: for increase of mitochondrial membrane potential: compound 10 µM, 6-OHDA 120 µM, TMRM
Description: We determined the effect of polyphenolic compounds from M. amurensis on 6-OHDA-induced mitochondrial dysfunction in Neuro-2a cells (Figure 6a,b).
Figure 6 The effect of polyphenolic compounds isolated from M. amurensis heartwood on mitochondrial membrane potential in Neuro-2a cells treated with 6-OHDA (120 μM) (a,b). Polyphenolic compounds isolated from M. amurensis heartwood were used at concentrations 10, 1, 0.1 μM. The data are presented as means ± SEM of three independent replicates. (*) and (***) indicate, respectively, p < 0.05 and p < 0.001 versus 6-OHDA-treated cells.
The cells were incubated for 1 h in a 96-well plate (1 × 10^4 cells/well) with polyphenolic compounds (0.1, 1 and 10 µM). Then, 6-OHDA (120 µM) was added, and cell suspension was incubated for 1 h. Cells incubated without 6-OHDA and compounds and with 6-OHDA alone were used as positive and negative control, respectively. The tetramethylrhodamine methyl (TMRM) (Sigma-Aldrich, St. Louis, MO, USA) solution (500 nM) was added to each well and cells were incubated for 30 min at 37 °C. The intensity of fluorescence was measured using a PHERAstar FSplate reader (BMG Labtech, Ortenberg, Germany) at λex = 540 nm and λem = 590 nm. The data were processed by MARS Data Analysis v. 3.01R2 (BMG Labtech, Ortenberg, Germany).

HSV-1 [3] = assay: Virucidal activity, RT-PCR assay (HSV-1 pretreated with compounds); type: cell-based, HSV-1 strain L2; conditions: for Ct: 72 h; for −ΔCt: vs virus control; for log10: log10 of 2^−ΔCt; for 2^−ΔCt: relative level of viral DNA vs virus control
Description: Vero cells grown on 96-well plates were infected with the virus (100 TCID50/mL), pretreated with polyphenolic compounds at concentrations 0.1, 1 and 10 μg/mL. After 72 h of cell incubation, viral DNA was extracted from the supernatants, and the relative level of HSV-1 DNA was determined using RT-PCR. The effect of polyphenols on the relative level of viral DNA was assessed using the 2^−∆Ct method and reported as fold reduction compared to virus control.
(§1) The HSV-1 strain L2 obtained from N.F. Gamaleya Federal Research Centre for Epidemiology and Microbiology (Moscow, Russia) was grown in Vero cells as previously described.
(§2) We determined the direct inhibitory effect of polyphenolic compounds from M. amurensis heartwood on HSV-1 (virucidal effect). We mixed the virus at an infectious dose (100 TCID50/mL) with polyphenolic compounds (from 0.1 to 100 µg/mL) at a ratio of 1:1 (v/v) and incubated for an hour at 37 °C. Then, we infected the monolayer of Vero cells grown on 96-well plates (1 × 10^4 cells/well) with HSV-1 pretreated with the studied compounds. After 1 h adsorption at 37 °C, the cells were washed with phosphate-buffered saline (PBS) and overlaid by the maintenance medium with 1% FBS. The plates were incubated for 72 h at 37 °C in a CO2-incubator. The cytopathic effect (CPE) inhibition assay and real-time reverse transcription-PCR (RT-PCR) assay were used to evaluate virucidal effect of the tested compounds.
We performed the RT-PCR assay as we previously described in detail in [22]. Briefly, HSV-1 DNA was extracted after incubation from cell supernatants by using the DNA-sorb-AM (K1-12-100-CE) nucleic acid extraction kit (AmpliSens®, Moscow, Russia) according to the manufacturer′s instructions. We treated the supernatants with a lysis solution that contained guanidine chloride (chaotropic agent) in the presence of sorbent (silica particles). As the elution solution was added, the DNA was […] silica particles and separated from the sorbent particles by centrifugation.
We detected the DNA of HSV-1 in the obtained samples using the AmpliSens® HSV I, II-FRT-100F PCR kit (AmpliSens®, Moscow, Russia) on a real-time PCR instrument Rotor-Gene Q (Qiagen, Hilden, Nordrhein-Westfalen, Germany) according to the manufacturer′s instructions. The PCR reaction conditions were the following: initial denaturation at 95 °C for 15 min; then 5 cycles at 95 °C for 5 s, at 60 °C for 20 s, at 72 °C for 15 s; then 40 cycles at 95 °C for 5 s, at 60 °C for 20 s, and at 72 °C for 15 s. A negative sample was used as the amplification control for each run. The threshold cycle number Ct, was measured as the PCR cycle, where the amount of the amplified target reached the threshold value; the Ct values ≥ 37 indicated the absence of the HSV-1 DNA in the samples. We assessed the anti-HSV-1 activity of the studied compounds by the reduction in the viral DNA levels using the 2^−ΔCt method according to Equation (2):(2) ΔCt=Ctcv−Cttv where Ct is the threshold cycle number measured as the PCR cycle, where the amount of the amplified target reached the threshold value, […]

HSV-1 [4] = assay: Virucidal activity, CPE inhibition assay (HSV-1 pretreated with compounds); type: cell-based, HSV-1 strain L2; conditions: for SI: ratio of CC50 to IC50, virucidal scheme
Description: The antiviral activity of polyphenols from M. amurensis against HSV-1 was assessed using the cytopathic effect inhibition (CPE) assay. To study the inhibitory effect of polyphenolic compounds directly on the HSV-1 virus (direct virucidal activity), the monolayer of Vero cells grown on 96-well plates (1 × 10^4 cells/well) was infected with the virus (100 TCD50/mL), pretreated with different concentrations of polyphenolic compounds.
as §1, §2
We previously described this method in detail in [22]. We performed the MTT assay to evaluate the antiviral activity of polyphenolic compounds. The viral inhibition rate (IR, %) was calculated according to Equation (1):(1) IR, %=Atv−Acv/Acd−Acv×100, where Atv is the absorbance of cells infected with HSV-1 pretreated with the studied compounds,
We calculated the selectivity index (SI) as the ratio of CC50 to IC50. Experiments were repeated three times.

[5] = tested on: 6-OHDA-treated Neuro-2a cells; assay: 6-OHDA-induced neurotoxicity model, cell viability test (MTT); type: cell-based, murine; conditions: 6-OHDA 100 µM
Description: Neuro-2a cells were incubated with the studied polyphenolic compounds for 1 h. Then, 100 µM of 6-hydroxydopamine 6-OHDA were added. We determined the percentage of living Neuro-2a cells after treatment with 6-OHDA (Figure 4a–d).
Figure 4 The effect of polyphenolic compounds isolated from M. amurensis heartwood on the viability of Neuro-2a cells treated with 6-OHDA (100 μM) (a–d). The viability of Neuro-2a cells treated with various compounds and 6-OHDA was measured by the MTT assay. Polyphenolic compounds isolated from M. amurensis heartwood were used at concentrations 10, 1, 0.1 μM. The data are presented as means ± SEM of three independent replicates. (*) indicate p < 0.05 versus 6-OHDA-treated cells.
After 24 h of adhesion, Neuro-2a cells (5 × 10^4 cells/mL) were treated with polyphenolic compounds at concentrations of 0.1, 1 and 10 μM for 1 h. Then, 100 µM of 6-OHDA or 1 mM of PQ (Sigma-Aldrich, St. Louis, MO, USA) were added. Cells incubated without inductors or with inductors were used as positive and negative control, respectively. Cell viability was measured after 24 h using the MTT assay.

[6] = Human alphaherpesvirus 1, 72 h, read-out: 2^−ΔCt
[7] = Human alphaherpesvirus 1, 72 h, read-out: log10

`NCCc1cc(O)c(O)cc1O` [Compound 6-OHDA, 6-hydroxydopamine, reference compound] was tested, and the Dead [1] was 1.11 ± 0.37%, the Early apop. [1] was 42.62% and 42.62 ± 2.3% and the “Late apop./Dead” value [1] was 12.15% and 12.15 ± 1.34%. The Live [1] was 44.14 ± 1.34% and the “decrease of TMRM fluorescence after treatment of Neuro-2a cells with 6-OHDA” value ([2]; 6-OHDA alone) was 14%.
In the case of `COc1ccc(-c2coc3cc(O)ccc3c2=O)cc1` [Compound 8, formononetin], the “virucidal activity against HSV-1 by RT-PCR (in words)” value (HSV-1 [3]; 0.1, 1 and 10 µg/mL) is reported as “did not demonstrate virucidal activity”, the “virucidal activity against HSV-1 (in words)” value (HSV-1 [4]; CPE assay, virus pretreated with compound) is reported as “did not show virucidal activity” and the “effect on viability of 6-OHDA-treated Neuro-2a cells (in words)” value (“effect on viability” below) ([5]; compound 1 µM) is reported as “increased the viability”. For the same compound, the “effect on viability” value ([5]; compounds at 10, 1, 0.1 µM) was “weak effect on cell viability”.
For `Oc1cc(O)cc(/C=C/c2ccc(O)c(O)c2)c1` [Compound 11, piceatannol], the Ct (HSV-1 [3]; 0.1 µg/mL) was 18.4 ± 2.4, the “−ΔCt” value (HSV-1 [3]; 0.1 µg/mL) was −0.30 ± 0.03 and the “inhibition of HSV-1 replication by RT-PCR (in words)” value (HSV-1 [3]; 1 µg/mL) was “inhibited the replication of HSV-1”. The Ct (HSV-1 [3]; 1 µg/mL) was 24.5 ± 3.4, the “−ΔCt” value (HSV-1 [3]; 1 µg/mL) was −6.4 ± 0.8 and the “anti-HSV-1 activity by RT-PCR (in words)” value (HSV-1 [3]; 10 µg/mL) was “significantly reduced the level of viral DNA”. The Ct (HSV-1 [3]; 10 µg/mL) was 30.2 ± 3.9, the “−ΔCt” value (HSV-1 [3]; 10 µg/mL) was −12.1 ± 1.4 and the activity at 0.1 µg/mL (HSV-1 [3]; [6]) was 81.2 ± 11%. It also gave an activity at 1 µg/mL (HSV-1 [3]; [6]) of 1.18 ± 0.15%, an activity at 10 µg/mL (HSV-1 [3]; [6]) of 0.0228 ± 0.03% and a log reduction at 0.1 µg/mL (HSV-1 [3]; [7]) of 0.09 ± 0.01. For the same compound, the log reduction at 1 µg/mL (HSV-1 [3]; [7]) was 1.9 ± 0.2, the log reduction at 10 µg/mL (HSV-1 [3]; [7]) was 3.6 ± 0.5 and the IC50 (HSV-1 [4]; Human alphaherpesvirus 1, virus pretreated with compound (virucidal), CPE assay, Vero cells, 100 TCID50/mL) was 6.7 µg/mL and 27.4 µM. The SI (HSV-1 [4]) was 37.3 ± 5.2, the “effect on viability” value ([5]; compounds at 10, 1, 0.1 µM) was “weak effect on cell viability” and the “increase of mitochondrial membrane potential” value [2] was 8–12%.
With medicarpin [Compound 7] the Ct (HSV-1 [3]; 0.1 µg/mL) was 18.1 ± 2.2, the log10 (HSV-1 [3]; 0.1 µg/mL) was 0 and the “2^−ΔCt” value (HSV-1 [3]; 0.1 µg/mL) was 1.0. The “−ΔCt” value (HSV-1 [3]; 0.1 µg/mL) was 0, the Ct (HSV-1 [3]; 1 µg/mL) was 18.3 ± 2.2 and the log10 (HSV-1 [3]; 1 µg/mL) was −0.060 ± 0.008. The “2^−ΔCt” value (HSV-1 [3]; 1 µg/mL) was 0.870 ± 0.11, the “−ΔCt” value (HSV-1 [3]; 1 µg/mL) was −0.20 ± 0.02 and the “anti-HSV-1 activity by RT-PCR (in words)” value (HSV-1 [3]; 10 µg/mL) was “moderate anti-HSV-1 activity”. For the same compound, the Ct (HSV-1 [3]; 10 µg/mL) was 19.8 ± 2.4, the log10 (HSV-1 [3]; 10 µg/mL) was −0.50 ± 0.06 and the “2^−ΔCt” value (HSV-1 [3]; 10 µg/mL) was 0.297 ± 0.04. The “−ΔCt” value (HSV-1 [3]; 10 µg/mL) was −1.75 ± 0.20, the SI (HSV-1 [4]) was 2.1 ± 0.3 and the “effect on viability” value ([5]; compounds at 10, 1, 0.1 µM) was “weak effect on cell viability”. For the same compound, the “increase of mitochondrial membrane potential” value [2] was 8–12%.
